ChEMBL document CHEMBL1201862, “PubChem BioAssay data set” (2004)
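The compound was tested at five concentrations on cells cultured in 96-well plates, with a 48-hour exposure period. Here, GI50 denotes the concentration required for 50% inhibition of growth.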 Active and inactive are the calls of the source. No stated cut-off is given here; in the data, active = GI50 up to about 1.1 µM and inactive = higher.

Assays:
Experiment in all cases: DTP human tumour cell line panel, 48 h
NCI-H23 = test system: NCI-H23
MDA-MB-435 = test system: MDA-MB-435
HOP-62 = test system: HOP-62
SN12C = test system: SN12C
MCF7 = test system: MCF7
BT-549 = test system: BT-549
OVCAR-3 = test system: OVCAR-3
Hs-578T = test system: Hs-578T
UACC-62 = test system: UACC-62
SF-539 = test system: SF-539
HOP-92 = test system: HOP-92
HL-60 = test system: HL-60
NCI-H226 = test system: NCI-H226
DU-145 = test system: DU-145
SNB-75 = test system: SNB-75
A498 = test system: A498
OVCAR-4 = test system: OVCAR-4
MDA-MB-231 = test system: MDA-MB-231
SR = test system: SR
OVCAR-8 = test system: OVCAR-8

Compound	GI50 (NCI-H23)	GI50 (MDA-MB-435)	GI50 (HOP-62)	GI50 (SN12C)	GI50 (MCF7)	GI50 (BT-549)	GI50 (OVCAR-3)	GI50 (Hs-578T)	GI50 (UACC-62)	GI50 (SF-539)	GI50 (HOP-92)	GI50 (HL-60)	GI50 (NCI-H226)	GI50 (DU-145)	GI50 (SNB-75)	GI50 (A498)	GI50 (OVCAR-4)	GI50 (MDA-MB-231)	GI50 (SR)	GI50 (OVCAR-8)
CC(=O)Nc1n[n+]([O-])c2cc(C)ccc2[n+]1[O-]	2.19 µM (inactive)	4.72 µM (inactive)	2.89 µM (inactive)	3.05 µM (inactive)	0.296 µM (active)	3.39 µM (inactive)	2.4 µM (inactive)	6.61 µM (inactive)	1.78 µM (inactive)	1.99 µM (inactive)	1.01 µM (active)	1.92 µM (inactive)	4.32 µM (inactive)	4.71 µM (inactive)	2.88 µM (inactive)	5.22 µM (inactive)	4.38 µM (inactive)	6.81 µM (inactive)	2.56 µM (inactive)	2.96 µM (inactive)
O=C1NC(O)c2ccccc2O1 (stereo not given)	> 100 µM (inactive)	> 100 µM (inactive)	> 100 µM (inactive)	> 100 µM (inactive)	> 100 µM (inactive)	> 100 µM (inactive)	> 100 µM (inactive)	> 100 µM (inactive)	> 100 µM (inactive)	> 100 µM (inactive)	> 100 µM (inactive)	> 100 µM (inactive)	> 100 µM (inactive)	> 100 µM (inactive)	> 100 µM (inactive)	> 100 µM (inactive)	> 100 µM (inactive)	> 100 µM (inactive)	> 100 µM (inactive)	> 100 µM (inactive)
COC(=O)c1ccc(NCC2=CC(=O)c3ccccc3C2=O)cc1	14.5 µM (inactive)	12.2 µM (inactive)	16.2 µM (inactive)	21.8 µM (inactive)	18.4 µM (inactive)	20 µM (inactive)	12.9 µM (inactive)	28.6 µM (inactive)	13.6 µM (inactive)	23.4 µM (inactive)	2.77 µM (inactive)	3.1 µM (inactive)	16.4 µM (inactive)	16.5 µM (inactive)	20.7 µM (inactive)	24.2 µM (inactive)	14.2 µM (inactive)	2.99 µM (inactive)	14.6 µM (inactive)	29.8 µM (inactive)
COc1ccc2c(c1)/c(=C/C#N)c1c3ccccc3[n+](C)n21	5.3 µM (inactive)	6.87 µM (inactive)	5.73 µM (inactive)	7 µM (inactive)	6.1 µM (inactive)	9.08 µM (inactive)	1.34 µM (inactive)	8.55 µM (inactive)	13.6 µM (inactive)	0.767 µM (active)	1.16 µM (inactive)	3.05 µM (inactive)	4.29 µM (inactive)	1.71 µM (inactive)	3.7 µM (inactive)	1.7 µM (inactive)	4.37 µM (inactive)	24 µM (inactive)	6.34 µM (inactive)	11.4 µM (inactive)
COc1cc2c3cc1Oc1c(O)c(OC)cc4c1[C@H](Cc1ccc(cc1)Oc1cc(ccc1O)C[C@H]3N(C)CC2)N(C)CC4	22.4 µM (inactive)	10.7 µM (inactive)	16.4 µM (inactive)	4.17 µM (inactive)	13.3 µM (inactive)	12.9 µM (inactive)	10.2 µM (inactive)	20 µM (inactive)	17.4 µM (inactive)	3.23 µM (inactive)	6.64 µM (inactive)	6.68 µM (inactive)	29.4 µM (inactive)	15.1 µM (inactive)	18.8 µM (inactive)	16.7 µM (inactive)	16.9 µM (inactive)	10.3 µM (inactive)	1.63 µM (inactive)	14.9 µM (inactive)
